Test results reported in patent US5468727A, “Methods of normalizing metabolic parameters in diabetics” (Board of Regents, The University of Texas System, priority 1993, dated 1995).

Key:
[1] = system: obese diabetic Zucker rats; assay: Gastric emptying by gamma scintigraphy with camostat, diabetic rats; assay type: in vivo; details: diabetic Zucker rats 10 wks old, 1% camostat in 30% glucose solution by gavage; without 38.4±18 min
Description: (§1) Eight male obese Zucker rats of a strain that becomes diabetic by 10 wks of age and 8 matched lean Zucker rats as controls were studied. After overnight fast, rats 10 wks old were fed by gavage a 30% glucose solution ([…] body weight) containing 150 μCi of ^99m Tc-SC. Each rat was tested with and without 1% camostat, a trypsin inhibitor known to stimulate CCK release, in the glucose solution. Gastric emptying was monitored by gamma scintigraphy at 10 min intervals. Fasting and 1 hr postprandial plasma glucose were determined.

lean Zucker rats = assay: Gastric emptying by gamma scintigraphy with camostat, lean rats; assay type: in vivo; details: lean Zucker rats 10 wks old, 1% camostat in 30% glucose solution by gavage; without 65.1±5.7 min
Description: as §1

[2] = system: obese diabetic Zucker rats; assay: Fasting and 1 hr postprandial plasma glucose with camostat, diabetic rats; assay type: in vivo; details: fasting to 1 hr postprandial, 1% camostat in 30% glucose solution, without Camostat 270-±18 mg/dl
Description: as §1

[3] = system: subjects with early NIDDM; assay: Serum insulin by radioimmunoassay with CCK-8 infusion; assay type: in vivo, human; details: iv CCK-8 infusion
Description: (§2) Blood samples were drawn from the indwelling 18 gauge angiocatheter in the antecubital fossa at 15 min intervals beginning just prior to ingestion of the glucose solution and ending at 120 min. Blood for glucose evaluation was collected in grey-top vacutainer tubes containing potassium oxalate and sodium fluoride. Blood for insulin and C-peptide was collected in red top tubes. Samples for hemoglobin A-1-C, gastric inhibitory polypeptide (GIP) and CCK were collected in lavender top tubes containing EDTA. All glass tubes were from Becton Dickinson Vacutainer Systems, Rutherford, N.J. Glucose analysis were performed on a Paramax instrument (Baxter Healthcare Corp., Irvine, Calif.). Hemoglobin A1C was performed by the micro column test (Bio-Rad, Hercules, Calif. 94547).
(§3) The C-peptide assay was performed by Smith Kline Bioscience Laboratories, Van Nuys, Calif. by radioimmunoassay (Diagnostic Products, Los Angeles, Calif. 90045). The assay for insulin was performed by Smith Kline Bioscience Laboratory, St. Louis, Mo. by radioimmunoassay (Pharmacia Diagnostics, Fairfield, N.J. 07004). Assays for GIP and CCK were performed by radioimmunoassay by the Gastroenterology Unit at Mayo Clinic (Rochester, Minn. 55905) using in-house kits.
(§4) The second study was performed 3 days later. […]

[4] = system: subjects with early NIDDM; assay: Plasma glucose after glucose solution with CCK-8 infusion; assay type: in vivo, human; details: iv CCK-8 infusion
Description: as §2
(§5) The second study was performed 3 days later. Subjects drank the glucose solution and a gastric emptying study was performed with simultaneous infusion of CCK (Kinevac™, Squibb Diagnostics Princeton, N.J. 08543) at 48 pM/kg/hr.
Infusions of the saline solution for the first test and the CCK solution for the second test were begun 10 min prior to ingestion of the glucose solution.

[5] = system: subjects with early NIDDM; assay: Adverse effects during CCK-8 infusion; assay type: in vivo, human; details: iv CCK-8 infusion, 2 hr
Description: as §5
None of the subjects reported any nausea or abdominal distress during the CCK-8 infusions.

[6] = Plasma CCK by radioimmunoassay with CCK-8 infusion; assay type: in vivo, human; details: during iv CCK-8 infusion; without CCK-8 20.8 pmol/L; P=0.0247
Description: as §2, §3, §4

[7] = system: subjects with early NIDDM; assay: Gastric emptying study (gamma camera, 99mTc-SC glucose solution) with CCK-8 infusion; assay type: in vivo, human
Source text: Seven subjects with early NIDDM (diagnosed for less than 2 years) underwent two separate gastric emptying studies. Subjects were five men and two women ranging in age from 33 to 49 and previously diagnosed as diabetic according to current WHO criteria using a 75 g glucose tolerance test (OGTT) with blood sampled fasting and at 2 hr. All patients had been on oral hypoglycemic medication which was discontinued the evening prior to the study. All studies were begun between 7-8 am following a 12 hour fast.
An 18 gauge angiocatheter was placed in one antecubital fossa for blood drawing while another 18 gauge angiocatheter was placed in the other antecubital fossa for a 0.9% (normal saline) infusion ([…]). Gastric emptying studies utilizing a gamma camera (Scintronix USA, Inc., Woburn Mass.) were performed with a modified 0.62M (50 g glucose in 450 ml water) glucose solution. This solution has been used previously in gastric emptying studies (Schwartz, et al., 1990). […]
The subjects were then seated at a 90 degree angle in front of a gamma camera. […] Counts in the stomach region of interest were calculated in each 60 second image. After correcting for radioactive decay, the count rates were converted to a percentage of the maximum count rate recorded. […]

[8] = system: subjects with early NIDDM; assay: Plasma GIP by radioimmunoassay with CCK-8 infusion; assay type: in vivo, human; details: iv CCK-8 infusion; without CCK-8 420.4 pg/ml; P=0.0032
Description: as §2, §3, §4

SMILES	gastric half-emptying time [1]	gastric half-emptying time (lean Zucker rats)	incremental increase in plasma glucose [2]	average insulin concentration over the 2 hr period, relative to saline infusion ([3]; not statistically significant)	average insulin concentration over the 2 hr period ([3]; without CCK-8 44.2 μU/ml, P=0.1480)	average glucose excursion value during the 2-hr period, relative to saline infusion ([4]; 2 hr)	average glucose excursion value during the 2-hr period ([4]; saline 5.6 mmol/liter, P=0.0550)	average glucose concentration during the 2-hr period following the glucose meal ([4]; saline infusion 17.1, P=0.0073)	adverse effects (nausea, abdominal distress) during infusion [5]	average plasma CCK-8 excursion [6]	gastric half-emptying time ([7]; average, 7 early NIDDM subjects, iv CCK infusion 48 pM/kg/hr, 50 g glucose in 450 ml, without CCK-8 40.9 min, P=0.0042)	average area under the gastric emptying curve during the 2-hr period, relative to the same patients not receiving CCK-8 ([7]; iv CCK-8 infusion, early NIDDM subjects, 2 hr)	average GIP excursion over the 2 hr period [8]
CN(C)C(=O)COC(=O)Cc1ccc(OC(=O)c2ccc(NC(=N)N)cc2)cc1 [Camostat]	141 ± 33 min	167 ± 25 min	160 ± 15 mg/dL										
CSCC[C@H](NC(=O)[C@H](Cc1ccc(OS(=O)(=O)O)cc1)NC(=O)[C@@H](N)CC(=O)O)C(=O)NCC(=O)N[C@@H](Cc1c[nH]c2ccccc12)C(=O)N[C@@H](CCSC)C(=O)N[C@@H](CC(=O)O)C(=O)N[C@@H](Cc1ccccc1)C(N)=O [CCK-8, Cholecystokinin-octapeptide]				68%	30.2 μU/ml	66%	3.7 mmol/L	14.0 mmol/L	No adverse effects were reported or observed	49.6 pmol/L	94.2 min	175%	266.4 pg/mL
